Results taken from ChEMBL document CHEMBL3991601, “The target landscape of clinical kinase drugs” (Science, 2017).
The source made the active and inactive calls.

How the values were obtained:
[1] = molecular target: Serine/threonine-protein kinase N3 (Homo sapiens, UniProt Q6P5Z2)
[2] = molecular target: Mitogen-activated protein kinase 14 (Homo sapiens, UniProt Q16539)
[3] = molecular target: T1, ATP-dependent RNA helicase DHX30 (Homo sapiens, UniProt Q7L2E3)
T1 sequence (Q7L2E3 whole entry): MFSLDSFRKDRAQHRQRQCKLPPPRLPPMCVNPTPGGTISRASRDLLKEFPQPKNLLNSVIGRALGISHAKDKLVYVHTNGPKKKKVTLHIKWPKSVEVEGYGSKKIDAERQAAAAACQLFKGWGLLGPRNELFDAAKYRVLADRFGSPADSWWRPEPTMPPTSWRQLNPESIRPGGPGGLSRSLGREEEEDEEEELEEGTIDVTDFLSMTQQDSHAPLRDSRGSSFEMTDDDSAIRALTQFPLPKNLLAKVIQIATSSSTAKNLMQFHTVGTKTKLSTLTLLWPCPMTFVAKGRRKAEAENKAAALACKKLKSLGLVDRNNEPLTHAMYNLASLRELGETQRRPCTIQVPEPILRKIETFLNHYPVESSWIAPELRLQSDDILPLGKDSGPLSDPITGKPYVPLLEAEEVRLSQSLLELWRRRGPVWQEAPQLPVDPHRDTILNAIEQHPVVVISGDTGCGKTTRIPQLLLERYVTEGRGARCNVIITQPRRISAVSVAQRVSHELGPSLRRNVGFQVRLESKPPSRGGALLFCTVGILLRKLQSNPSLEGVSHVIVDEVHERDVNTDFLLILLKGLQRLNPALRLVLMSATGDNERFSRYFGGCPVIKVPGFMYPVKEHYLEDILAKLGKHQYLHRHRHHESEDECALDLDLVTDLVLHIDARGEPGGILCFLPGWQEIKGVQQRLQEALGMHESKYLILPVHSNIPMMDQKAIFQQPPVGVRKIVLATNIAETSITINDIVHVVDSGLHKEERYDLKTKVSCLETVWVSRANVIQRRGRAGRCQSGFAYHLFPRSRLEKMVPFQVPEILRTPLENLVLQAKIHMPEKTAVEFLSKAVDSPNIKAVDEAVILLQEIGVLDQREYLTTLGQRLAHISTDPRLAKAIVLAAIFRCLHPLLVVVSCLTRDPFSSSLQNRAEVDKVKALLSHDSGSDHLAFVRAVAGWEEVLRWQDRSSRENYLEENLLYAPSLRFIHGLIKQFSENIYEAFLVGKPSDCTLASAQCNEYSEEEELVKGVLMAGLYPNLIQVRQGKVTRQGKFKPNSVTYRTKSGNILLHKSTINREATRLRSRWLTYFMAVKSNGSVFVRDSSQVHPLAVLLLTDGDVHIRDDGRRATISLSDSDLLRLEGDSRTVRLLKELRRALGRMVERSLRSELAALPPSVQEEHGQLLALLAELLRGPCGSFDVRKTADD

Myosin-10 = Myosin-10 (Homo sapiens, UniProt P35580)
Myosin-10, sequence (P35580 whole entry): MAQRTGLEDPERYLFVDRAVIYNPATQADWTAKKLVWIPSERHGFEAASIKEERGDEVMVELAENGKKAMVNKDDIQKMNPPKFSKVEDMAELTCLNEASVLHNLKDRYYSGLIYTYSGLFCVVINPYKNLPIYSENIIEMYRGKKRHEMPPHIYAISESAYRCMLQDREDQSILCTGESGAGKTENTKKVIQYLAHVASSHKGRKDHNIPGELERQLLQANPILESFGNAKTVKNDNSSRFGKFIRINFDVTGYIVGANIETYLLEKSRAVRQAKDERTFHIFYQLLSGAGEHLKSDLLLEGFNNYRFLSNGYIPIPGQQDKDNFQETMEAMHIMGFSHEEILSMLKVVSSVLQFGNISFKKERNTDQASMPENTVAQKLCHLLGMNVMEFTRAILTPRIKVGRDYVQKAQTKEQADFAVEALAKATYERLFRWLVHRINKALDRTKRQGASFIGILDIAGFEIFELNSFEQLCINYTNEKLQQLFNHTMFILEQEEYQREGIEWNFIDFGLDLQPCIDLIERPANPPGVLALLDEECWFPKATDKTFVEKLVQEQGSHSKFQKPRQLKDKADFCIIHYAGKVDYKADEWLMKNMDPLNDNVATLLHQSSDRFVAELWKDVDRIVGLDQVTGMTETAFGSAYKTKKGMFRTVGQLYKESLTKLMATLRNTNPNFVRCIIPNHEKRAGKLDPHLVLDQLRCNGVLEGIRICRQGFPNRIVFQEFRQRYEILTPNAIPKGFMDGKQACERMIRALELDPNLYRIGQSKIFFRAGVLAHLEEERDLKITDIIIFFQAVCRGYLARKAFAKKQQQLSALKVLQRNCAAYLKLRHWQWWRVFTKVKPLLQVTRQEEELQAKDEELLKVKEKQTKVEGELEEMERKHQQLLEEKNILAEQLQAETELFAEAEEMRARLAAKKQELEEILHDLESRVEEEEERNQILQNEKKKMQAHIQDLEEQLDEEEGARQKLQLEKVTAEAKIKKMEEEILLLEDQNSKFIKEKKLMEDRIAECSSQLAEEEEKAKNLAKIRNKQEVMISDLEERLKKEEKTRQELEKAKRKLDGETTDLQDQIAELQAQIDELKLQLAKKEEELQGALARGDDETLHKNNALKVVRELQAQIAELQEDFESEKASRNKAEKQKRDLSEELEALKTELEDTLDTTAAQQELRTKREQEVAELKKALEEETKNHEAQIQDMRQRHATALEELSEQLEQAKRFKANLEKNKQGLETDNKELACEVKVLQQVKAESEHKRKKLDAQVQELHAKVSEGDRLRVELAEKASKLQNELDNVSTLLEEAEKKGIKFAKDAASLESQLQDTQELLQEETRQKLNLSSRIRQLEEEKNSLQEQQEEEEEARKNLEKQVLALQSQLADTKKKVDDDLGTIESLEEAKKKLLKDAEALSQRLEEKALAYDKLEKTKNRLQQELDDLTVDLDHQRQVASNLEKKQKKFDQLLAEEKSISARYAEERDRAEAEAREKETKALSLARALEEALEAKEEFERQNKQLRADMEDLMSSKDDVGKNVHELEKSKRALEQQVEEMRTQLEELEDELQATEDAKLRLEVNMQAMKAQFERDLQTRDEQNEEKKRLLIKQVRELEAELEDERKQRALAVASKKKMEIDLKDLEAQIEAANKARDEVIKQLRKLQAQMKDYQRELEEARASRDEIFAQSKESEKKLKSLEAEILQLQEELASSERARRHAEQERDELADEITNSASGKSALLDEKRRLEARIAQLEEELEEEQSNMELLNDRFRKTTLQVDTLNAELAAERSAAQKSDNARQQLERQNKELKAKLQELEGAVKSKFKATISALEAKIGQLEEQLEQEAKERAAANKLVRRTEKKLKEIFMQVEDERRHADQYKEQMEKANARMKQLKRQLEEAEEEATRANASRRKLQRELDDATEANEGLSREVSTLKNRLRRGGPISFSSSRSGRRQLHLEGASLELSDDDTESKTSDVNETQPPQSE

[4] = molecular target: Guanine nucleotide-binding protein G(i) subunit alpha-2 (Homo sapiens, UniProt P04899)
Guanine nucleotide-binding protein G(i) subunit alpha-2, sequence (P04899 whole entry): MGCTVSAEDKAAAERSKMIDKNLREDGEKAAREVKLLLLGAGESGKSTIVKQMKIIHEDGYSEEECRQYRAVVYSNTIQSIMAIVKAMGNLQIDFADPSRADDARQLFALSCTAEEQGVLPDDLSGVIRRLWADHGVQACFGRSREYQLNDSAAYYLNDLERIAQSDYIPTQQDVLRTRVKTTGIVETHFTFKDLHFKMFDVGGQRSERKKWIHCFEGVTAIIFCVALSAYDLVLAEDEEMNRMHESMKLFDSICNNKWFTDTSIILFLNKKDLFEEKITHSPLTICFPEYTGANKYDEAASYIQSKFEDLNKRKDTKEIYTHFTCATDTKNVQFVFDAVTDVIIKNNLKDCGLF

UMP-CMP kinase = molecular target: T2, UMP-CMP kinase (Homo sapiens, UniProt P30085)
T2 sequence (P30085 whole entry): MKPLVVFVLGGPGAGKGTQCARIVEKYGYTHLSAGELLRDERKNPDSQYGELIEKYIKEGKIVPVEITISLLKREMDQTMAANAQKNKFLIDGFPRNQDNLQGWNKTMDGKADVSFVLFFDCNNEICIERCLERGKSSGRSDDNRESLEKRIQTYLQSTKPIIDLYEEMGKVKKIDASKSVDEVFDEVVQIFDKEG

[5] = molecular target: T3, Dual specificity mitogen-activated protein kinase kinase 4 (Homo sapiens, UniProt P45985)
T3 sequence (P45985 whole entry): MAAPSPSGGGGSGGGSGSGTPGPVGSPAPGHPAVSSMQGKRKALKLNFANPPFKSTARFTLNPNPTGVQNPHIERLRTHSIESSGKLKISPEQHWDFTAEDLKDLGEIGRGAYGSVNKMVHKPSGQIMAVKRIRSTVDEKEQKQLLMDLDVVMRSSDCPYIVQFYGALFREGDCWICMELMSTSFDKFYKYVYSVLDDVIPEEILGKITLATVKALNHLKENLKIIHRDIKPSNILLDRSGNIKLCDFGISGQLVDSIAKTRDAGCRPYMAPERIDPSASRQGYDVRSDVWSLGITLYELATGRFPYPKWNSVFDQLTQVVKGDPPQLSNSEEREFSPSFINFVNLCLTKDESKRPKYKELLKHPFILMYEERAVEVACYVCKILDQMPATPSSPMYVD

Measured: Kd
Note: in the data inactive means no Kd found up to 30 µM.

Mitogen-activated protein kinase 14, sequence (Q16539 whole entry): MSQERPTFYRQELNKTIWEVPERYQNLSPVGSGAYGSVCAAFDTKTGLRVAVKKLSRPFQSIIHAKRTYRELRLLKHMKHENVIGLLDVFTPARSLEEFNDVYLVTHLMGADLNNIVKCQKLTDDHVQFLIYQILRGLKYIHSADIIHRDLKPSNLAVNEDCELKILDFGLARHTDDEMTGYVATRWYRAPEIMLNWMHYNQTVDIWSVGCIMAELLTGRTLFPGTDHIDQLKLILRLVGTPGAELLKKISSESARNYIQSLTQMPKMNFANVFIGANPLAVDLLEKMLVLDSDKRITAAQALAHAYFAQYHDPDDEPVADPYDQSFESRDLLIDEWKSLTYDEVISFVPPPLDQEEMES
Serine/threonine-protein kinase N3, sequence (Q6P5Z2 whole entry): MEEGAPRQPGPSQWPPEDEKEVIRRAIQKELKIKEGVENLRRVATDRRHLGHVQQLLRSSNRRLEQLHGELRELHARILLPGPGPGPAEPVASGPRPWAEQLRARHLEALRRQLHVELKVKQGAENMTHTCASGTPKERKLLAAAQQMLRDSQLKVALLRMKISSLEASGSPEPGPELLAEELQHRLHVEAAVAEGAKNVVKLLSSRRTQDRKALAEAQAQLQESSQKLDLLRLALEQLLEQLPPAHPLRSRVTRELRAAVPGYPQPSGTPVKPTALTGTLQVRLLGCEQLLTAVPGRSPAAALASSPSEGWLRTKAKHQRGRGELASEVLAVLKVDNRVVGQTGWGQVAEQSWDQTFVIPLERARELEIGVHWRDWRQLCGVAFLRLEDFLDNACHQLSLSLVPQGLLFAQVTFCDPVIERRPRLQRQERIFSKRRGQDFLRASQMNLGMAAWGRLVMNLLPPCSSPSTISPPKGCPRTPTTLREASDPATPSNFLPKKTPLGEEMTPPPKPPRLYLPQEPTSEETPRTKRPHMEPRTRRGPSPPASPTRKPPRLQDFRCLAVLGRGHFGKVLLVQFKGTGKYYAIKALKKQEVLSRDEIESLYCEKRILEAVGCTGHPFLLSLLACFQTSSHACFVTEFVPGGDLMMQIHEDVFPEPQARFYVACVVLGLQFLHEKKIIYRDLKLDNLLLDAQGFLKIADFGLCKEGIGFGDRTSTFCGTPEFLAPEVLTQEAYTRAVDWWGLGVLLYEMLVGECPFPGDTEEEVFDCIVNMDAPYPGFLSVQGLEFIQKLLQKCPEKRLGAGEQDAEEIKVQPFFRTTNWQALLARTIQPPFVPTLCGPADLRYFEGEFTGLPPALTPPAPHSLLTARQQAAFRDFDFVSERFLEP

Cc1ccc(S(=O)(=O)Nc2nc3ccccc3nc2Nc2ccc3nsnc3c2)cc1
inactive: [1] > 30 µM | [2] > 30 µM | [3] > 30 µM | Myosin-10 > 30 µM | [4] > 30 µM

Cn1cc(-c2ccc(F)c(C(F)(F)F)c2)nc1C1CCN(c2ncnc3[nH]ncc23)CC1 [LY-2584702]
inactive: [2] > 30 µM | [4] > 30 µM | UMP-CMP kinase > 30 µM

CCn1c(=O)c(-c2cc[nH]n2)cc2c(C)nc(N)nc21 [VOXTALISIB]
inactive: Myosin-10 > 30 µM | [4] > 30 µM | UMP-CMP kinase > 30 µM

Cn1ncc(Cl)c1-c1cc(C(=O)N[C@H](CN)Cc2cccc(F)c2)sc1Cl [AFURESERTIB]
inactive: [2] > 30 µM | [3] > 30 µM | [4] > 30 µM

CNC(=O)CN1CCC(Oc2cc3c(Nc4cccc(Cl)c4F)ncnc3cc2OC)CC1 [SAPITINIB]
inactive: [1] > 30 µM | [2] > 30 µM | [4] > 30 µM | [5] > 30 µM

CCn1c(-c2nonc2N)nc2c(C#CC(C)(C)O)ncc(OC[C@H]3CCCNC3)c21 [GSK-690693]
inactive: UMP-CMP kinase > 30 µM

Cc1cc(Nc2cc(N3CCN(C)CC3)nc(/C=C/c3ccccc3)n2)n[nH]1 [ENMD-2076]
inactive: [3] > 30 µM | Myosin-10 > 30 µM | [4] > 30 µM | [5] > 30 µM | UMP-CMP kinase > 30 µM

CNC(=O)c1ccc(-c2cnc3ncc(Cc4ccc5ncccc5c4)n3n2)cc1F [CAPMATINIB]
inactive: [1] > 30 µM | [2] > 30 µM | [3] > 30 µM | Myosin-10 > 30 µM | [4] > 30 µM

C[C@@H](Nc1cc(F)cc(F)c1)c1cc(C(=O)N(C)C)cc2c(=O)cc(N3CCOCC3)oc12 [AZD-8186]
inactive: [2] > 30 µM | [4] > 30 µM

Cc1c(F)cc(C(=O)NC2CC2)cc1-c1ccc(C(=O)NCC(C)(C)C)cn1 [LOSMAPIMOD]
inactive: [1] > 30 µM | [3] > 30 µM | [4] > 30 µM

COc1cc(CCc2cc(NC(=O)c3ccc(N4C[C@@H](C)N[C@@H](C)C4)cc3)n[nH]2)cc(OC)c1 [AZD-4547]
inactive: [1] > 30 µM | [2] > 30 µM | [3] > 30 µM | Myosin-10 > 30 µM | UMP-CMP kinase > 30 µM

C=CC(=O)N1CCC(Oc2cc3c(Nc4ccc(Cl)c(Cl)c4F)ncnc3cc2OC)CC1 [POZIOTINIB]
inactive: [2] > 30 µM | [3] > 30 µM | [4] > 30 µM

Nc1nc(N)c2nc(-c3cccc(O)c3)c(-c3cccc(O)c3)nc2n1 [TG100-115]
inactive: [1] > 30 µM | [3] > 30 µM | [4] > 30 µM

CN1CCN(c2ccc3nc(-c4c(N)c5c(F)cccc5[nH]c4=O)[nH]c3c2)CC1 [DOVITINIB]
inactive: [3] > 30 µM | Myosin-10 > 30 µM

O=C(Nc1cccc(Cl)c1)Nc1ncc(CCNc2ncnc3ccsc23)s1 [SNS-314]
inactive: [1] > 30 µM | [3] > 30 µM | Myosin-10 > 30 µM | [4] > 30 µM | [5] > 30 µM | UMP-CMP kinase > 30 µM

C1=C/COCc2cc(ccc2OCCN2CCCC2)Nc2nccc(n2)-c2cccc(c2)COC/1 [PACRITINIB]
inactive: [2] > 30 µM | Myosin-10 > 30 µM

CCc1cnn2c(NCc3ccc[n+]([O-])c3)cc(N3CCCC[C@H]3CCO)nc12 [DINACICLIB]
inactive: [1] > 30 µM | Myosin-10 > 30 µM | [4] > 30 µM | [5] > 30 µM | UMP-CMP kinase > 30 µM

CN1CCC(COc2cnc(-c3cccc(Cn4nc(-c5cccc(C#N)c5)ccc4=O)c3)nc2)CC1 [TEPOTINIB]
inactive: [3] > 30 µM | [4] > 30 µM | [5] > 30 µM | UMP-CMP kinase > 30 µM

COc1cc2nccc(Oc3ccc(NC(=O)Nc4cc(C)on4)c(Cl)c3)c2cc1OC [TIVOZANIB]
inactive: [1] > 30 µM | [2] > 30 µM | Myosin-10 > 30 µM | [4] > 30 µM | [5] > 30 µM | UMP-CMP kinase > 30 µM

C[C@@H](c1ccc2nccn2c1)n1nnc2ncc(-c3cnn(C)c3)nc21 [SAVOLITINIB]
inactive: [2] > 30 µM | UMP-CMP kinase > 30 µM

N[C@@H]1CCCN(c2c(/C=C3\SC(=O)NC3=O)cccc2-c2ccccc2)C1
inactive: [2] > 30 µM | [3] > 30 µM | Myosin-10 > 30 µM | [4] > 30 µM | UMP-CMP kinase > 30 µM

COc1cc(N2CCC(N3CCN(C)CC3)CC2)ccc1Nc1ncnc(Nc2ccccc2S(=O)(=O)C(C)C)n1 [ASP-3026]
inactive: [2] > 30 µM | [4] > 30 µM

Cc1cc([C@@H](C)Nc2ccccc2C(=O)O)c2nc(N3CCOCC3)cc(=O)n2c1 [AZD-6482]
inactive: [1] > 30 µM | [2] > 30 µM | [3] > 30 µM | Myosin-10 > 30 µM | [4] > 30 µM | [5] > 30 µM | UMP-CMP kinase > 30 µM

O=c1sn(-c2cccc3ccccc23)c(=O)n1Cc1ccccc1 [TIDEGLUSIB]
inactive: [1] > 30 µM | [2] > 30 µM

CN(C)C(=O)c1cc2cnc(Nc3ccc(N4CCNCC4)cn3)nc2n1C1CCCC1 [RIBOCICLIB]
inactive: [2] > 30 µM | [3] > 30 µM | [4] > 30 µM | [5] > 30 µM

Cc1cn(-c2cc(NC(=O)c3ccc(C)c(Nc4nccc(-c5cccnc5)n4)c3)cc(C(F)(F)F)c2)cn1 [NILOTINIB]
inactive: [1] > 30 µM | [3] > 30 µM | Myosin-10 > 30 µM | UMP-CMP kinase > 30 µM

CN1CC[C@@H](c2c(O)cc(O)c3c(=O)cc(-c4ccccc4Cl)oc23)[C@@H]1CO
inactive: [1] > 30 µM | [2] > 30 µM | [3] > 30 µM | UMP-CMP kinase > 30 µM
